Results published in article PMC2367043, “Effects of Ursolic Acid and its Analogues on Soybean 15-Lipoxygenase Activity and the Proliferation Rate of A human Gastric Tumour Cell Line” (Mediators of Inflammation, 1994).
Like-named read-outs stand apart in the source and are kept apart here.

Biological target: T1, soybean 15-lipoxygenase (Glycine max, UniProt P08170)
T1 construct: gene LOX1.1
T1 sequence (P08170 1-839): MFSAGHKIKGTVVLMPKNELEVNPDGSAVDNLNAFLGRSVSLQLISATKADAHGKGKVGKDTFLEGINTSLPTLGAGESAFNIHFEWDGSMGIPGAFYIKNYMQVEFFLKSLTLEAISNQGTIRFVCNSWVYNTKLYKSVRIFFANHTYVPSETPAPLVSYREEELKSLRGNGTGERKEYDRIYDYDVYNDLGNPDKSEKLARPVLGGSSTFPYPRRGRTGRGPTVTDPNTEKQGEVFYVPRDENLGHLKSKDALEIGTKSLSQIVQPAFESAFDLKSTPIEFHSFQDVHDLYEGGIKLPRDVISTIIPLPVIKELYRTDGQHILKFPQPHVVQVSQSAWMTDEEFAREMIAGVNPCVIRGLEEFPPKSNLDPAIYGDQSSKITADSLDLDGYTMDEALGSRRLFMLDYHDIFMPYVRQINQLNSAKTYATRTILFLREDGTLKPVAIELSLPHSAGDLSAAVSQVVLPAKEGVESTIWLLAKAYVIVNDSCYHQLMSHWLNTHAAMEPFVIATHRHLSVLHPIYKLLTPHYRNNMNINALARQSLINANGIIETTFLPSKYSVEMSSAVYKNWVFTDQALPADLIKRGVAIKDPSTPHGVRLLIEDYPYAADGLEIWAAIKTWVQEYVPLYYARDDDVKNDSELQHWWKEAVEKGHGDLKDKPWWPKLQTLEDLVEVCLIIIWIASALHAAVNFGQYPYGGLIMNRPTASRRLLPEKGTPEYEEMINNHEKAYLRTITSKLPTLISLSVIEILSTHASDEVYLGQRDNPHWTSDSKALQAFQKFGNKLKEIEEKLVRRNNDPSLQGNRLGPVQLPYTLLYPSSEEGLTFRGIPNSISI
Assay: spectrophotometric assay at […] nm of […](S)-HPODE formation from linoleic acid, pH […]
Format: biochemical

With `CC1(C)CC[C@]2(C(=O)O)CC[C@]3(C)C(=CC[C@@H]4[C@@]5(C)CC[C@H](O)C(C)(C)[C@@H]5CC[C@]43C)[C@@H]2C1` [oleanolic acid] the IC50 was 265 µM.

In the case of `C[C@H]1[C@H](C)CC[C@]2(C(=O)O)CC[C@]3(C)C(=CC[C@@H]4[C@@]5(C)CC[C@H](O)C(C)(C)[C@@H]5CC[C@]43C)[C@H]12` [ursolic acid], the IC50 (read-out: IC50) is reported as 175 µM.
